Reference: PubChem BioAssay AID248 (DTP/NCI, 2004)
Inconclusive results and toxic doses are left out. No stated cut-off is given here; in the data, active means T/C of 150% or more; inactive means T/C below 125%.

Tested on: L1210 leukemia ip in BDF1 mice, survival T/C
Test: NCI In Vivo Anticancer Drug Screen. Data for tumor model L1210 Leukemia (intraperitoneal) in B6D2F1 (BDF1) mice
Conditions: endpoint: mean survival time, higher = longer survival
Outline: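 Each compound was tested against a transplantable tumor grown in mice. The endpoint was survival, with treated animals benchmarked against vehicle controls as a simple ratio.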

[1] = dose: 100.0 mg/kg/injection, schedule: Q01DX001 (ip), vehicle: other
[2] = dose: 200.0 mg/kg/injection, schedule: Q01DX001 (ip), vehicle: other
[3] = dose: 400.0 mg/kg/injection, schedule: Q01DX001 (ip), vehicle: other

Measured: T/C

CSc1nc(SCc2ccccc2)[nH]c(=O)n1
inactive: dose: 100.0 mg/kg/injection, schedule: Q04DX002 (ip), vehicle: saline with Tween-80 98 % of control | dose: 200.0 mg/kg/injection, schedule: Q04DX002 (ip), vehicle: saline with Tween-80 117 % of control | dose: 400.0 mg/kg/injection, schedule: Q04DX002 (ip), vehicle: saline with Tween-80 98 % of control

Nc1nc2c(c(=O)[nH]1)N=C(CNc1ccc(C(=O)NC(CCC(=O)O)C(=O)O)cc1)CN2 (stereo unspecified)
inactive: dose: 2.0 mg/kg/injection, schedule: Q01DX009 (ip), vehicle: sodium bicarbonate 109 % of control | dose: 4.0 mg/kg/injection, schedule: Q01DX009 (ip), vehicle: sodium bicarbonate 115 % of control | dose: 8.0 mg/kg/injection, schedule: Q01DX009 (ip), vehicle: sodium bicarbonate 116 % of control | dose: 16.0 mg/kg/injection, schedule: Q01DX009 (ip), vehicle: sodium bicarbonate 115 % of control

O=C(c1ccc(-c2ccccc2)cc1)C1CC1c1ccccc1 (stereo unspecified)
inactive: dose: 100.0 mg/kg/injection, schedule: Q01DX009 (ip), vehicle: saline sonified 97 % of control | dose: 200.0 mg/kg/injection, schedule: Q01DX009 (ip), vehicle: saline sonified 96 % of control | dose: 400.0 mg/kg/injection, schedule: Q01DX009 (ip), vehicle: saline sonified 91 % of control

CN1CCC2CCC(C1)N2C (stereo unspecified)
inactive: dose: 75.0 mg/kg/injection, schedule: Q01DX001 (ip), vehicle: saline 93 % of control | dose: 150.0 mg/kg/injection, schedule: Q01DX001 (ip), vehicle: saline 100 % of control

CC1(C)OC2C3COc4nc5c(N)ncnc5n4C(O3)C2O1 (stereo unspecified)
inactive: dose: 100.0 mg/kg/injection, schedule: Q01DX001 (ip), vehicle: steriod suspending solution 112 % of control | dose: 200.0 mg/kg/injection, schedule: Q01DX001 (ip), vehicle: steriod suspending solution 101 % of control | dose: 400.0 mg/kg/injection, schedule: Q01DX001 (ip), vehicle: steriod suspending solution 98 % of control

NC(=O)c1ccc[n+](CCCl)c1
inactive: dose: 62.5 mg/kg/injection, schedule: Q01DX010 (ip), vehicle: saline 94 % of control | dose: 125.0 mg/kg/injection, schedule: Q01DX010 (ip), vehicle: saline 93 % of control

CCn1cc(C(=O)O)c(=O)c2cc3c(cc21)OCO3
inactive: [1] 96 % of control | [2] 108 % of control | [3] 98 % of control

CC(C)(C)c1ccc(S(=O)(=O)c2ccc(C(C)(C)C)c(N=C=O)c2)cc1N=C=O
inactive: dose: 75.0 mg/kg/injection, schedule: Q04DX002 (ip), vehicle: saline with Tween-80 96 % of control | dose: 150.0 mg/kg/injection, schedule: Q04DX002 (ip), vehicle: saline with Tween-80 101 % of control | dose: 300.0 mg/kg/injection, schedule: Q04DX002 (ip), vehicle: saline with Tween-80 93 % of control

Cc1ccc(S(=O)(=O)OCCOCCOCCOCCOCCOCCOS(=O)(=O)c2ccc(C)cc2)cc1
inactive: [1] 103 % of control | [2] 98 % of control | [3] 98 % of control

CCCCCCCCCCCCCC(=O)CCC
inactive: dose: 100.0 mg/kg/injection, schedule: Q01DX009 (ip), vehicle: saline with Tween-80 106 % of control | dose: 100.0 mg/kg/injection, schedule: Q04DX003 (ip), vehicle: saline with Tween-80 86 % of control | dose: 200.0 mg/kg/injection, schedule: Q01DX009 (ip), vehicle: saline with Tween-80 100 % of control | dose: 200.0 mg/kg/injection, schedule: Q04DX003 (ip), vehicle: saline with Tween-80 110 % of control | dose: 400.0 mg/kg/injection, schedule: Q01DX009 (ip), vehicle: saline with Tween-80 104 % of control | dose: 400.0 mg/kg/injection, schedule: Q04DX003 (ip), vehicle: saline with Tween-80 100 % of control

CCOc1ccccc1/C=C(\C#N)c1cccc(Cl)c1
inactive: dose: 100.0 mg/kg/injection, schedule: Q01DX009 (ip), vehicle: other 87 % of control | dose: 200.0 mg/kg/injection, schedule: Q01DX009 (ip), vehicle: other 88 % of control

CC1=CC(C)(C)NC(=S)N1c1cccc2ccccc12
inactive: dose: 75.0 mg/kg/injection, schedule: Q01DX009 (ip), vehicle: saline with Tween-80 90 % of control | dose: 150.0 mg/kg/injection, schedule: Q01DX009 (ip), vehicle: saline with Tween-80 87 % of control | dose: 224.0 mg/kg/injection, schedule: Q01DX Z (ip), vehicle: methylcellulose (MC) 94 % of control | dose: 300.0 mg/kg/injection, schedule: Q01DX009 (ip), vehicle: saline with Tween-80 88 % of control | dose: 334.0 mg/kg/injection, schedule: Q01DX Z (ip), vehicle: methylcellulose (MC) 86 % of control | dose: 500.0 mg/kg/injection, schedule: Q01DX Z (ip), vehicle: methylcellulose (MC) 88 % of control | dose: 750.0 mg/kg/injection, schedule: Q01DX Z (ip), vehicle: methylcellulose (MC) 102 % of control
